In ChEMBL document CHEMBL3853300, “Synthesis of α-santonin derived acetyl santonous acid triazole derivatives and their bioevaluation for T and B-cell proliferation” (Eur J Med Chem, 2016):

Columns and labels:
Mus musculus [1] = species: Mus musculus; test: Cytotoxicity against Balb/c mouse B cells assessed as decrease in cell viability at 1 uM after 48 hrs by MTT assay; format: toxicity, cell-based
[2] = Immunosuppressive activity in Balb/c mouse B cells assessed as inhibition of LPS-induced cell proliferation at 10 uM after 48 hrs by MTT assay relative to control; format: functional
Mus musculus [3] = species: Mus musculus; test: Cytotoxicity against Balb/c mouse B cells assessed as decrease in cell viability at 10 uM after 48 hrs by MTT assay; format: toxicity, cell-based
[4] = Immunosuppressive activity in Balb/c mouse T cells assessed as inhibition of ConA-induced cell proliferation at 100 uM after 48 hrs by MTT assay relative to control; format: functional
[5] = Immunosuppressive activity in Balb/c mouse B cells assessed as inhibition of LPS-induced cell proliferation at 100 uM after 48 hrs by MTT assay relative to control; format: functional
B = test: Immunosuppressive activity in Balb/c mouse B cells assessed as inhibition of LPS-induced cell proliferation after 48 hrs by MTT assay relative to control; format: functional, cell-based
T-cell = test: Immunosuppressive activity in Balb/c mouse T cells assessed as inhibition of ConA-induced cell proliferation after 48 hrs by MTT assay relative to control; format: functional, cell-based
Mus musculus [6] = species: Mus musculus; test: Cytotoxicity against Balb/c mouse T cells assessed as decrease in cell viability at 1 uM after 48 hrs by MTT assay; format: toxicity, cell-based
Mus musculus [7] = species: Mus musculus; test: Cytotoxicity against Balb/c mouse B cells assessed as decrease in cell viability at 100 uM after 48 hrs by MTT assay; format: toxicity, cell-based
Mus musculus [8] = species: Mus musculus; test: Cytotoxicity against Balb/c mouse T cells assessed as decrease in cell viability at 10 uM after 48 hrs by MTT assay; format: toxicity, cell-based
Mus musculus [9] = species: Mus musculus; test: Cytotoxicity against Balb/c mouse T cells assessed as decrease in cell viability at 100 uM after 48 hrs by MTT assay; format: toxicity, cell-based
[10] = Immunosuppressive activity in Balb/c mouse T cells assessed as inhibition of ConA-induced cell proliferation at 10 uM after 48 hrs by MTT assay relative to control; format: functional
[11] = Immunosuppressive activity in Balb/c mouse B cells assessed as inhibition of LPS-induced cell proliferation at 1 uM after 48 hrs by MTT assay relative to control; format: functional
[12] = Immunosuppressive activity in Balb/c mouse T cells assessed as inhibition of ConA-induced cell proliferation at 1 uM after 48 hrs by MTT assay relative to control; format: functional

Row | SMILES | Activity (Mus musculus [1]) | inhibition at 10 µM [2] [%] | Activity (Mus musculus [3]) | inhibition at 100 µM [4] [%] | inhibition at 100 µM [5] [%] | inhibition (B) | inhibition (T-cell) | Activity (Mus musculus [6]) | Activity (Mus musculus [7]) | Activity (Mus musculus [8]) | Activity (Mus musculus [9]) | inhibition at 10 µM [10] [%] | inhibition at 1 µM [11] [%] | inhibition at 1 µM [12] [%]
1 | CC(=O)Oc1cc(C)c2c(c1C)C[C@H]([C@@H](C)C(=O)OCc1cn(-c3ccccc3CO)nn1)CC2 | Toxic | 64.1 | Toxic | 81.1 | 53.4 | Dose-dependent effect | Dose-dependent effect | Toxic | Toxic | Toxic | Toxic | 32.6 | 60.3 | 17.4
2 | CC(=O)Oc1cc(C)c2c(c1C)C[C@H]([C@@H](C)C(=O)OCc1cn(-c3cccc([N+](=O)[O-])c3)nn1)CC2 | Toxic | 26.9 | Toxic | 10.2 | 24.6 | Dose-dependent effect | Dose-dependent effect | Toxic | Non-Toxic | Toxic | Non-Toxic | 30.6 | 29.1 | 45.4
3 | COc1cc(-n2cc(COC(=O)[C@H](C)[C@@H]3CCc4c(C)cc(OC(C)=O)c(C)c4C3)nn2)cc(OC)c1OC | Toxic | 22.1 | Toxic | 83.3 | 89.3 | Dose-dependent effect | Dose-dependent effect | Toxic | Non-Toxic | Toxic | Non-Toxic | 37.1 | 42 | 45.5
4 | CC(=O)Oc1cc(C)c2c(c1C)C[C@H]([C@@H](C)C(=O)OCc1cn(-c3ccc(Cl)c(Cl)c3)nn1)CC2 | Non-Toxic | 50.5 | Toxic | 11.8 | 49.5 | Dose-dependent effect | Dose-dependent effect | Non-Toxic | Toxic | Toxic | Toxic | 18.4 | 39 | 31.6
5 | CC(=O)Oc1cc(C)c2c(c1C)C[C@H]([C@@H](C)C(=O)OCc1cn(-c3ccc(Cl)cc3)nn1)CC2 | Toxic | 25.1 | Non-Toxic | 13 | 34.3 | Dose-dependent effect | Dose-dependent effect | Toxic | Toxic | Non-Toxic | Toxic | 28.7 | 34.3 | 37
6 | COc1ccccc1-n1cc(COC(=O)[C@H](C)[C@@H]2CCc3c(C)cc(OC(C)=O)c(C)c3C2)nn1 | Toxic | 32.4 | Non-Toxic | 29.4 | 6.59 | Dose-dependent effect | Dose-dependent effect | Toxic | Non-Toxic | Non-Toxic | Non-Toxic | 33.1 | 27.5 | 8.08
7 | COc1ccc(-n2cc(COC(=O)[C@H](C)[C@@H]3CCc4c(C)cc(OC(C)=O)c(C)c4C3)nn2)cc1 | Toxic | 36.8 | Non-Toxic | 30.1 | 15.4 | Dose-dependent effect | Dose-dependent effect | Toxic | Toxic | Non-Toxic | Toxic | 36 | 42.3 | 33.8
